Results as given in ChEMBL document CHEMBL4725224, “A novel Golgi mannosidase inhibitor: Molecular design, synthesis, enzyme inhibition, and inhibition of spheroid formation” (Bioorg Med Chem, 2020).
The source made the active and inactive calls. The calls are words filed in the database; no cut-off is given here.

How the values were obtained:
Format in all cases: cell-based
HeLa [1] = test: Inhibition of Golgi mannosidase in human HeLa cells assessed as high mannose type N-glycans accumulation by measuring reduction in cell length using ConA-AF488 at 10 uM by fluorescence microscopy analysis (reference value: 100%); settings: time day <=7
HeLa [2] = test: Inhibition of Golgi mannosidase in human HeLa cells assessed as high mannose type N-glycans accumulation by measuring increase in fluorescence area using ConA-AF488 at 10 uM by fluorescence microscopy analysis (reference value: 100%); settings: values are per cent of control
HeLa [3] = test: Inhibition of Golgi mannosidase in human HeLa cells assessed as high mannose type N-glycans accumulation by measuring increase in fluorescence intensity using ConA-AF488 at 10 uM by fluorescence microscopy analysis (reference value: 100%); settings: values are per cent of control
OVCAR-3 = test: Inhibition of Golgi mannosidase in human OVCAR-3 cells assessed as inhibition of spheroid formation by measuring size at 10 uM upto 7 days by light microscopy analysis relative to control; settings: time day <=7
HeLa [4] = test: Inhibition of Golgi mannosidase in human HeLa cells assessed as intracellular high mannose type N-glycans accumulation by measuring increase in fluorescence intensity using ConA-AF488 at 10 uM by confocal laser scanning microscopy analysis

| SMILES | inhibition (HeLa [1]) [%] | response, % of control (HeLa [2]) [%] | response, % of control (HeLa [3]) [%] | inhibition (OVCAR-3) | inhibition (HeLa [4]) |
| --- | --- | --- | --- | --- | --- |
| CN(C)c1ccc(CNCCC(c2ccccc2)c2ccccc2)cc1 | 32 |  |  |  |  |
| c1ccc(CNCCC(c2ccccc2)c2ccc3c(c2)OCO3)cc1 (centres undefined) | 21 |  |  |  |  |
| Clc1ccc(CNCCC(c2ccccc2)c2ccccc2)cc1 | 29 | 127 | 134 |  |  |
| COc1ccc(C(CCNCc2ccc(Cl)cc2)c2ccc3c(c2)OCO3)cc1 (centres undefined) | 27 | 150 |  |  |  |
| Clc1ccc(CNCCC(c2ccccc2)c2ccc3c(c2)OCO3)cc1 (centres undefined) | 18 | 115 | 111 |  |  |
| O=C1N[C@@H]2[C@@H](O)[C@@H](O)[C@H](O)[C@@H](CO)N2C1=O | 13 |  |  | inactive | Active |
| c1ccc(C(CCNCc2ccc3c(c2)OCO3)c2ccccc2)cc1 | 28 | 113 | 114 |  |  |
| COc1ccc(C(CCNCc2ccc3c(c2)OCO3)c2ccc3c(c2)OCO3)cc1 (centres undefined) | 26 | 108 | 110 |  |  |
| c1ccc(C(CCNCc2ccc3c(c2)OCO3)c2ccc3c(c2)OCO3)cc1 (centres undefined) | 31 | 113 | 104 |  |  |
| COc1ccc(C(CCNCc2ccc(N(C)C)cc2)c2ccc3c(c2)OCO3)cc1 (centres undefined) | 28 | 148 |  | Active | Active |
| CN(C)c1ccc(CNCCC(c2ccccc2)c2ccc3c(c2)OCO3)cc1 (centres undefined) | 23 | 114 | 114 |  |  |
